From patent US20230348444A1, “NOVEL COMPOUNDS FOR USE IN THE TREATMENT OF DISEASES ASSOCIATED WITH ANGIOTENSIN II” (Vicore Pharma AB, priority 2020, published 2023)
Where two headings read alike, the source gives them in different places.

Tests used:
[1] = biological target: T1, human recombinant AT1 receptor (Homo sapiens, UniProt P30556); test: biochemical
T1 sequence (P30556 1-359): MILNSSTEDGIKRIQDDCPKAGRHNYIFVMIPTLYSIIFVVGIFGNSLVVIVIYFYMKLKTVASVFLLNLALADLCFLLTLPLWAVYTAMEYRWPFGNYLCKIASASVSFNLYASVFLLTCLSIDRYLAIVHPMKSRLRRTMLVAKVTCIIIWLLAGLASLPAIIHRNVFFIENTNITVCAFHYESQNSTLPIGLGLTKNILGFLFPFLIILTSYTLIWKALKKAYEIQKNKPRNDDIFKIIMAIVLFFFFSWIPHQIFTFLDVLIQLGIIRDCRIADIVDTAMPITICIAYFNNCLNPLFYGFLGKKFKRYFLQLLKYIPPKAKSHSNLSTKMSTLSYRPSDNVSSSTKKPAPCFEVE
Method: (§3) Compounds were evaluated for binding to the human recombinant AT2 and AT1 receptor according to Eurofins protocol ITEM26 and ITEM24 using a radiometric scintillation assay.

[2] = biological target: T2, human recombinant AT2 receptor (Homo sapiens, UniProt P50052); test: biochemical
T2 sequence (P50052 1-363): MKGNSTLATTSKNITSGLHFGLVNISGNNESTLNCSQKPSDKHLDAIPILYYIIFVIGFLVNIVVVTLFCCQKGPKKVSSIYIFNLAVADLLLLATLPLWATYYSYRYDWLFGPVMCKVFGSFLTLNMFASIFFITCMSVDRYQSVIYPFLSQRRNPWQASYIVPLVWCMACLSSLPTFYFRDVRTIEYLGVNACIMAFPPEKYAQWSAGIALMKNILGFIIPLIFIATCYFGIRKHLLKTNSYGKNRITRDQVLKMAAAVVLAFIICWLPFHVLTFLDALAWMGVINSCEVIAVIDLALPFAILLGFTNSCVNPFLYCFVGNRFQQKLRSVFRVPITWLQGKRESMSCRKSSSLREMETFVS
Method: as §3

[3] = Metabolic stability in pooled human liver microsomes with or without NADPH; format: in vitro ADME; conditions: human, pooled human liver microsomes, pooled human liver microsomes 0.5 mg/mL in PBS, 1 uM test compound, 37° C.
Method: Pooled human liver microsomes in PBS at a concentration of 0.5 mg/mL was incubated with or without 1 mM NADPH for 70 min at 37° C. Test compound was added after 10 minutes to a final concentration of 1 uM. Samples were withdrawn at 0, 5, 15 and 60 minutes and added to test tubes containing acetonitrile, to stop the reaction, and with terfenadine, used as internal standard. After centrifugation at 10000×g for 5 minutes the supernatant was diluted 1:1 with 1% formic acid. Samples were separated on a reverse phase column and detected by triple quadrupole MSMS (Agilant model 6540). The concentration of the parent compound at the different time points was measured with an external standard curve using terfenadine as internal standard and the initial metabolic rate in the presence or absence of NADPH calculated.

[4] = Metabolic hydrolysis of C21 found during development; format: in vitro ADME; conditions: statement in words
CYP3A4 [5] = biological target: T3, CYP3A4 (Homo sapiens, UniProt P08684); test: CYP inhibition of C21 found during development; format: in vitro ADME; conditions: statement in words
T3 sequence (P08684 whole entry, canonical isoform): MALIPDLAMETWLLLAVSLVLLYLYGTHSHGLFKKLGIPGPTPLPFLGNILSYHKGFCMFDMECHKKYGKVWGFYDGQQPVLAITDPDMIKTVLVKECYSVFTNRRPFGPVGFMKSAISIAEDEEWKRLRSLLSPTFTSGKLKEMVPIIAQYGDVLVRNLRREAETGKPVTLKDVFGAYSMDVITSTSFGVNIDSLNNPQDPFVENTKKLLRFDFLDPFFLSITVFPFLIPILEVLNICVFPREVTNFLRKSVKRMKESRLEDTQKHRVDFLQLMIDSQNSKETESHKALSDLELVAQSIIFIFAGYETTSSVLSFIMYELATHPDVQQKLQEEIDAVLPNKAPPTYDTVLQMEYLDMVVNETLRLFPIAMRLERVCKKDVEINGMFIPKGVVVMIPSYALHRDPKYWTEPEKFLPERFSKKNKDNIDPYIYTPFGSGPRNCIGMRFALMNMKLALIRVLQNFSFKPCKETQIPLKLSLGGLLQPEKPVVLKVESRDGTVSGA

CYP3A4 [6] = biological target: T3, CYP3A4; test: CYP inhibition in human liver microsomes (Eurofins protocol ITEMG232), midazolam substrate; format: in vitro ADME; parameters: using isoform-specific substrates incubated with human liver microsomes; tissue Eurofins ITEMG232; host or cells: human liver microsomes; conditions: 10 μM
Method: (§1) The following substrates were used; CYP1A phenacetin, CYP2B6 bupropion, CYP2C8 paclitaxel and amodiaquine, CYP2C9 diclofenac, CYP2C19 omeprazole, CYP2D6 dextromethorphan, CYP3A midazolam and testosterone.
(§2) At the end of the incubation, the formation of metabolite was monitored by HPLC-MS/MS as the peak area response.

CYP3A4&5 = test: CYP inhibition in human liver microsomes (Eurofins protocol ITEMG232), testosterone substrate; format: in vitro ADME; conditions: probe testosterone, read-out: CYP3A4&5 testosterone Inh %
Method: as §1, §2

CYP1A = biological target: T4, CYP1A (Homo sapiens, UniProt P05177); test: CYP inhibition in human liver microsomes (Eurofins protocol ITEMG232); format: in vitro ADME; conditions: 10 μM, substrate phenacetin
T4 construct: using isoform-specific substrates incubated with human liver microsomes; tissue Eurofins ITEMG232; host or cells: human liver microsomes
T4 sequence (P05177 2-516 limits assumed): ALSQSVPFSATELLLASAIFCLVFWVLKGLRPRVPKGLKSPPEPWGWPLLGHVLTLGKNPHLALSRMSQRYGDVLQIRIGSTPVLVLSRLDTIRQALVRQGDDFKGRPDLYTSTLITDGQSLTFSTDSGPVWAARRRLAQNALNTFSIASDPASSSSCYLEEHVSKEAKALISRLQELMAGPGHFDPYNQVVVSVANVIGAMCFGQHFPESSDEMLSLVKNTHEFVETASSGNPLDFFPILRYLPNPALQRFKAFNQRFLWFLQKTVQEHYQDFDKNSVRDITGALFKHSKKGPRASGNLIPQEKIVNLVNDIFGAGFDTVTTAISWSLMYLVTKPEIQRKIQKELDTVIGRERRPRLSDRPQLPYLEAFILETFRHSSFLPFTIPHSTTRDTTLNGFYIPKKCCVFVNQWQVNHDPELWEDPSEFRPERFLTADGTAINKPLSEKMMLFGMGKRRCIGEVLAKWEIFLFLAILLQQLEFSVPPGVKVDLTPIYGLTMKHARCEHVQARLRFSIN
Method: as §1, §2

CYP2D6 = biological target: T5, CYP2D6 (Homo sapiens, UniProt P10635); test: as above; format: in vitro ADME; conditions: 10 μM, substrate dextromethorphan
T5 construct: tissue Eurofins ITEMG232; host or cells: human liver microsomes
T5 sequence (P10635 whole entry): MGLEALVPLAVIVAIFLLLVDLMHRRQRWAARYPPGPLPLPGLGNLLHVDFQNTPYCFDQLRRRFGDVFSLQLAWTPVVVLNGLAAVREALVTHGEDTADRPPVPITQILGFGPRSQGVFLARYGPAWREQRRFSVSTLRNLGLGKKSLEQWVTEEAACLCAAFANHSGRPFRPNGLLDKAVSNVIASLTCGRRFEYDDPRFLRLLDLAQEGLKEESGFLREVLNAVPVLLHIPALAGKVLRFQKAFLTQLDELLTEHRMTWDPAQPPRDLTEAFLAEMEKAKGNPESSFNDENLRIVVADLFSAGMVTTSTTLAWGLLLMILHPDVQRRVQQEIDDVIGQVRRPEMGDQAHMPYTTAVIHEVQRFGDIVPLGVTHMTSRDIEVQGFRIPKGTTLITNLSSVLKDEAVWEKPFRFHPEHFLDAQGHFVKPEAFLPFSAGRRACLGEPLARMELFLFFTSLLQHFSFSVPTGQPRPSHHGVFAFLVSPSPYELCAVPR
Method: as §1, §2

CYP2C8 = biological target: T6, CYP2C8 (Homo sapiens, UniProt P10632); test: as above; format: in vitro ADME; conditions: 10 μM, substrates paclitaxel and amodiaquine
T6 construct: using isoform-specific substrates incubated with human liver microsomes; tissue Eurofins ITEMG232; host or cells: human liver microsomes
T6 sequence (P10632 1-490): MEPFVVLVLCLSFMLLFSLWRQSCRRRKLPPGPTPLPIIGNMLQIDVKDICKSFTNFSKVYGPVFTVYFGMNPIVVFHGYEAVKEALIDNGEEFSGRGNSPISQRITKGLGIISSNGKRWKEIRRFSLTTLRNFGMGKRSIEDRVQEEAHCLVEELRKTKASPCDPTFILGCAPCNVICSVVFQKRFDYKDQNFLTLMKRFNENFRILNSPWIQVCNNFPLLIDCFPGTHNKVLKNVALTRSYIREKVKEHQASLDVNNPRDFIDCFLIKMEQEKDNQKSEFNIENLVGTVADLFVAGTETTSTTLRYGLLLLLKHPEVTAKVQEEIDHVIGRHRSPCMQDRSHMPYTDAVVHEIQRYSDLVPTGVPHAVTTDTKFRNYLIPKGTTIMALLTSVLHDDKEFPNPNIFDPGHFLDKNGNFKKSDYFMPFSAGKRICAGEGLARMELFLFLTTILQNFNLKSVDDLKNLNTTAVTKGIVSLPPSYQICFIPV
Method: as §1, §2

CYP2B6 = biological target: T7, CYP2B6 (Homo sapiens, UniProt P20813); test: as above; format: in vitro ADME; conditions: 10 μM, substrate bupropion
T7 construct: using isoform-specific substrates incubated with human liver microsomes; tissue Eurofins ITEMG232; host or cells: human liver microsomes
T7 sequence (P20813 1-491): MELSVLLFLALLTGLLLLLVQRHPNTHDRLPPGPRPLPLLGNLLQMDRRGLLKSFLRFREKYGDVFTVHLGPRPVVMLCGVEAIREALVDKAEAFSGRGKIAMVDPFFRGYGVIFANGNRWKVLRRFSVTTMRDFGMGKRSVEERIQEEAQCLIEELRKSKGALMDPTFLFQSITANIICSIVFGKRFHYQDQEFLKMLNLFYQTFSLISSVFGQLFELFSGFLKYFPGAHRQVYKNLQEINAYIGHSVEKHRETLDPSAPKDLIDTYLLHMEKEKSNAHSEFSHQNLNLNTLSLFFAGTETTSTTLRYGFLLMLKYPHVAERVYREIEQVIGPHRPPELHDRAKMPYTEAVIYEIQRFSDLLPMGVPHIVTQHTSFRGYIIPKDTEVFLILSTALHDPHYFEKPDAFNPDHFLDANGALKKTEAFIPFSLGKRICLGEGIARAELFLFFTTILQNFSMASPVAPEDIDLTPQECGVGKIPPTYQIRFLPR
Method: as §1, §2

CYP2C9 = CYP2C9 (Homo sapiens, UniProt P11712); test: CYP inhibition of C21 found during development; format: in vitro ADME; conditions: statement in words
CYP2C9, sequence (P11712 whole entry): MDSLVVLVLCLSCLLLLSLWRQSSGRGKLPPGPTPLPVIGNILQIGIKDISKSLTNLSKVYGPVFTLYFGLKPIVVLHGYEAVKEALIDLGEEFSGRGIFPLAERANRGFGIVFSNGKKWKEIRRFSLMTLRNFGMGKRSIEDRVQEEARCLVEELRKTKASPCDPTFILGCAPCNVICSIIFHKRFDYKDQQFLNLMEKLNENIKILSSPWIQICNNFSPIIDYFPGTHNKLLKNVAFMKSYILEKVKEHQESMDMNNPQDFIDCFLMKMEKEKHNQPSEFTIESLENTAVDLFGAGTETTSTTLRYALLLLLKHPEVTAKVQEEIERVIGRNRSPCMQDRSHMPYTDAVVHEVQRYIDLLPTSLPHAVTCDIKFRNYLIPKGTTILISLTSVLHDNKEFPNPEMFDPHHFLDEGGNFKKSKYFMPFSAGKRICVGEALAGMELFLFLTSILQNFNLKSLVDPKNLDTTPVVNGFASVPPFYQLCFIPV

Q: With `Cc1nccn1Cc1ccc(-c2cc(CC(C)C)sc2S(=O)(=O)NC(=O)OCCOc2ccccc2)cc1F` [Example 9, 2-Phenoxyethyl (3-(3-fluoro-4-((2-methylimidazol-1-yl)methyl]phenyl)-5-isobutyl-2-thienyl)sulfonylcarbamate] as the molecule, how does the IC50 [1] read?
A: > 1000 nM

Q: What about the IC50 [2] of the same molecule?
A: 3.4 nM

Q: With `CCCCOC(=O)NS(=O)(=O)c1sc(CC(C)C)cc1-c1ccc(Cn2ccnc2)cc1` [Example C21, N-butyloxycarbonyl-3-(4-imidazol-1-ylmethylphenyl)-5-isobutylthiophene-2-sulfon-amide, reference compound] as the molecule, how does the half-life at 1 uM ([3]; with 1 mM NADPH, read-out: T1/2, +NaDPH) read?
A: 35 min

Q: And the half-life at 1 uM ([3]; without NADPH, read-out: T1/2, no NaDPH)?
A: 31 min

Q: And the “hydrolysis to an inactive sulfonamide metabolite” value [4]?
A: rapidly hydrolysed

Q: What about the “inhibition of CYP 3A4” value (CYP3A4 [5]) of the same molecule?
A: potent inhibitor

Q: And the “CYP3A4 midazolam Inh %” value (CYP3A4 [6])?
A: 95%

Q: What about the inhibition at 10 µM (CYP3A4&5) of the same molecule?
A: 94%

Q: What about the “CYP1A Inh %” value (CYP1A) of the same molecule?
A: 91%

Q: What about the “CYP2D6 Inh %” value (CYP2D6) of the same molecule?
A: 81%

Q: What about the “CYP2C8 Inh %” value (CYP2C8) of the same molecule?
A: 80%

Q: What about the “CYP2B6 Inh %” value (CYP2B6) of the same molecule?
A: 49%

Q: What about the “inhibition of CYP 2C9” value (CYP2C9) of the same molecule?
A: potent inhibitor
